Where a name gives a salt, the structure may show the parent alone. Read-outs that look alike come from different tables or passages of the source.
Tests used:
heparanase = biological target: T1, heparanase (Homo sapiens, UniProt Q9Y251); experiment: AGA*IA assay: heparanase-catalyzed fondaparinux cleavage, colorimetric (WST-1); type: biochemical
T1 sequence (Q9Y251 158-543 limits assumed): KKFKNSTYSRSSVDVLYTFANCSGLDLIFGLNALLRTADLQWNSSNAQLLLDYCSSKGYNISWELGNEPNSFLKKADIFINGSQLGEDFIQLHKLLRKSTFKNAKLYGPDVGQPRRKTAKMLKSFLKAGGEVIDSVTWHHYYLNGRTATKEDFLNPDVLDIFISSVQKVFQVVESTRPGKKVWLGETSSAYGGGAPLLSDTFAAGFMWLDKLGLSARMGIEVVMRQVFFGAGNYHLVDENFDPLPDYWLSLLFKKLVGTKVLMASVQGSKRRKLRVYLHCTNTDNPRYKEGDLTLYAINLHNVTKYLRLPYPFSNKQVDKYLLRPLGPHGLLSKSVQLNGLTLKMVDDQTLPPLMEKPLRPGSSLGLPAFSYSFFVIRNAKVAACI
T1 sequence (Q9Y251 36-109 limits assumed): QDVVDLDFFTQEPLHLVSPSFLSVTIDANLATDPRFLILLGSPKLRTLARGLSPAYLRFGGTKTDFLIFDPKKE
Procedure: All compounds were tested in a simple, accurate and robust microplate assay based on the cleavage of the synthetic heparin fragment, the pentasaccharide Fondaparinux (AGA*IA). This assay was originally developed by Hammond and coworkers (Hammond E, Li CP, Ferro V. Development of a colorimetric assay for heparanase activity suitable for kinetic analysis and inhibitor screening. Anal. Biochem. 396(1), 112-116 (2010)), where Fondaparinux corresponds to the methyl glycoside of the antithrombin III (ATIII)-activating pentasaccharide sequence of heparin. Fondaparinux is cleaved by heparanase to generate a reducing disaccharide, which can be quantitatively measured via a colorimetric or a fluorescence assay, the last by the fluorescent sensor polymer-H [Schiemann S, Lühn S, Alban S. Development of both colorimetric and fluorescence heparinase activity assays using fondaparinux as substrate. Anal. Biochem. 427(1), 82-89 (2012)].
The assay measures the appearance of the disaccharide product of heparanase-catalyzed fondaparinux cleavage colorimetrically using the tetrazolium salt WST-1. Assay was essentially performed as described with minor modifications. Briefly, NUNC ELISA 96-well plates were pre-treated with a solution of 4% BSA (bovin serum albumin) in phosphate-buffered saline containing 0.05% Tween 20 (PBST), for 2 h at 37°C, then washed three times with PBST, dried by tapping on paper towel and stored at -20°C. Before use, once again, the plates were washed with PBST.
Assay was carried out with 100 µl/well of assay solution containing 40 mM sodium acetate buffer (pH 5.0), 100 µM fondaparinux, 2.5 nM heparanase and serial dilutions of test compounds (tested in triplicate). Plates were sealed with adhesive tape and incubated, in the dark, for 3 h at 37°C, followed by development with 1.69 mM of the tetrazolium salt WST-1 solution in 0.1 M NaOH, for 1 h at 60°C. Then, the absorbance at 560 nm was measured through a microplate reader (Victor 3, Perkin Elmer).
Finally, the measurements were corrected by subtracting both the reagent background and the inner absorbance value of test compound.

[1] = test system: HT1080 (human fibrosarcoma); experiment: SRB Cell Cytotoxicity Assay (cell proliferation, 72h); type: cell-based; conditions: HT-1080, 72 h, read-out: Concentration (µM) of test compounds at which the cell growth is inhibited by 50 %. HT1080
Procedure: (§1) SRB Cell Cytotoxicity Assay is an assay based upon the quantitative staining of cellular proteins by sulforhodamine B (SRB). This assay can be used for high-throughput drug screening ([…], Nature Protocol. 2006, 1, 112). Sulforhodamine B is an anionic aminoxanthene dye that forms an electrostatic complex with the basic amino acid residues of proteins under moderately acid conditions, which provides a sensitive linear response. […] Inhibition of cell proliferation was then measured by the classical colorimetric SRB Cell Cytotoxicity assay. Absorbance was measured by spectrophotometer at a wavelength of 510 nm and cell proliferation was determined as percent with respect to control cells (cells treated with the vehicle alone). EC50 values were then determined by GraphPad Prism.

[2] = test system: U2OS (human osteosarcoma); experiment: as above; type: cell-based; conditions: 72 h, read-out: Concentration (µM) of test compounds at which the cell growth is inhibited by 50 %. U2OS
Procedure: as §1

[3] = test system: U87MG (human glioblastoma astrocytoma); experiment: as above; type: cell-based; conditions: U-87 MG, 72 h, read-out: Concentration (µM) of test compounds at which the cell growth is inhibited by 50 %. U87MG
Procedure: as §1

[4] = Table 1, range activity classes, AGA*IA test on Fondaparinux, read-out: AGAIA assay IC50
[5] = Table 2, classes as in Table 1, read-out: AGA*IA assay

SMILES | IC50 (heparanase; [4]) [nM] | further results
Cn1cc(NC(=O)c2cccc(NC(=O)Nc3cccc(C(=O)Nc4cc(C(=O)Nc5cccc(CC(=O)N[C@@H](Cc6ccccc6)C(=O)O)c5)n(C)c4)c3)c2)cc1C(=O)Nc1cccc(CC(=O)N[C@@H](Cc2ccccc2)C(=O)O)c1 [Compound 12e, 2,2'-{carbonylbis[imino-3,1-phenylenecarbonylimino(1-methyl-1H-pyrrole-4,2-diyl)carbonylimino-3,1-phenylene(1-oxoethane-2,1-diyl)imino]}bis(3-phenylpropanoic acid)] | 50 to 490 | IC50 (heparanase; AGA*IA screening, read-out: anti-heparanase activity): < 500 nM; IC50 (heparanase; [5]): 50 to 490 nM; EC50 [1]: > 2.5 µM; EC50 [2]: > 2.5 µM; EC50 [3]: > 2.5 µM
Cn1cc(NC(=O)Nc2cc(C(=O)Nc3cc(C(=O)Nc4cccc(CC(=O)O)c4)n(C)c3)n(C)c2)cc1C(=O)Nc1cc(C(=O)Nc2cccc(CC(=O)O)c2)n(C)c1 [Compound 17h, 2,2'-{carbonylbis[imino(1-methyl-1H-pyrrole-4,2-diyl)carbonylimino(1-methyl-1H-pyrrole-4,2-diyl)carbonylimino-3,1-phenylene]}diacetic acid] | 500 to 990 | IC50 (heparanase; [5]): 500 to 990 nM; EC50 [1]: > 2.5 µM; EC50 [2]: > 2.5 µM; EC50 [3]: > 2.5 µM
CC(C)C[C@H](NC(=O)Cc1cccc(NC(=O)c2cc(NC(=O)c3ccc(Oc4ccc(C(=O)Nc5cc(C(=O)Nc6cccc(CC(=O)N[C@@H](CC(C)C)C(=O)O)c6)n(C)c5)cc4)cc3)cn2C)c1)C(=O)O [Compound 36a, (2S,2'S)-2,2'-((2,2'-(((4,4'-((4,4'-Oxybis(benzoyl))bis(azanediyl))bis(1-methyl-1H-pyrrole-2,2'-carbonyl))bis(azanediyl))bis(3,1-phenylene))bis(acetyl))bis(azanediyl))bis(4-methylpentanoic acid)] | 1000 to 20000 | –
C[C@H](NC(=O)Cc1cccc(NC(=O)c2cc(NC(=O)c3ccc(Oc4ccc(C(=O)Nc5cc(C(=O)Nc6cccc(CC(=O)N[C@@H](C)C(=O)O)c6)n(C)c5)cc4)cc3)cn2C)c1)C(=O)O [Compound 36d, (2S,2'S)-2,2'-((2,2'-(((4,4'-((4,4'-Oxybis(benzoyl))bis(azanediyl))bis(1-methyl-1H-pyrrole-2,2'-carbonyl))bis(azanediyl))bis(3,1-phenylene))bis(acetyl))bis(azanediyl))dipropanoic acid] | 1000 to 20000 | –
Cn1cc(NC(=O)c2cccc(NC(=O)Nc3cccc(C(=O)Nc4cc(C(=O)Nc5ccc(CC(=O)O)cc5)n(C)c4)c3)c2)cc1C(=O)Nc1ccc(CC(=O)O)cc1 [Compound 12j, 2,2'-(((4,4'-((3,3'-(carbonylbis(azanediyl))bis(benzoyl))bis(azanediyl))bis(1-methyl-1H-pyrrole-2,2'-carbonyl))bis(azanediyl))bis(4,1-phenylene))diacetic acid] | 1000 to 20000 | –
CC(C)CC(NC(=O)Cc1cccc(NC(=O)c2cc(NC(=O)c3cc(NC(=O)Nc4cc(C(=O)Nc5cc(C(=O)Nc6cccc(CC(=O)NC(CC(C)C)C(=O)O)c6)n(C)c5)n(C)c4)cn3C)cn2C)c1)C(=O)O (stereo not drawn) [Compound 17a, 2,2'-{carbonylbis[imino(1-methyl-1H-pyrrole-4,2-diyl)carbonylimino(1-methyl-1H-pyrrole-4,2-diyl)carbonylimino-3,1-phenylene(1-oxoethane-2,1-diyl)imino]}bis(4-methylpentanoic acid)] | 1000 to 20000 | –
Cn1cc(NC(=O)c2cccc(NC(=O)Nc3cccc(C(=O)Nc4cc(C(=O)Nc5cccc(CC(=O)N[C@@H](CCCCN)C(=O)O)c5)n(C)c4)c3)c2)cc1C(=O)Nc1cccc(CC(=O)N[C@@H](CCCCN)C(=O)O)c1 [Compound 12c, 5,5'-{carbonylbis[imino-3,1-phenylenecarbonylimino(1-methyl-1H-pyrrole-4,2-diyl)carbonylimino-3,1-phenylene(1-oxoethane-2,1-diyl)imino]}bis(1-aminium-6-hexanoic acid) trifluoroacetate salt] | 1000 to 20000 | –
Cn1cc(NC(=O)Nc2cc(C(=O)Nc3cc(C(=O)Nc4cccc(CC(=O)N[C@@H](CCCCN)C(=O)O)c4)n(C)c3)n(C)c2)cc1C(=O)Nc1cc(C(=O)Nc2cccc(CC(=O)N[C@@H](CCCCN)C(=O)O)c2)n(C)c1 [Compound 35c, (2S,2'S)-2,2'-((2,2'-(((4,4'-((4,4'-(carbonylbis(azanediyl))bis(1-methyl-1H-pyrrole-4,2-diyl-2-carbonyl))bis(azanediyl))bis(1-methyl-1H-pyrrole-4,2-diyl-2-carbonyl))bis(azanediyl))bis(3,1-phenylene))bis(acetyl))bis(azanediyl))bis(6-aminohexanoic acid) dihydrochloride] | 1000 to 20000 | –
Cn1cc(NC(=O)c2ccc(Oc3ccc(C(=O)Nc4cc(C(=O)Nc5cccc(CC(=O)N[C@@H](CCC(=O)O)C(=O)O)c5)n(C)c4)cc3)cc2)cc1C(=O)Nc1cccc(CC(=O)N[C@@H](CCC(=O)O)C(=O)O)c1 [Compound 36f, (2S,2'S)-2,2'-((2,2'-(((4,4'-((4,4'-Oxybis(benzoyl))bis(azanediyl))bis(1-methyl-1H-pyrrole-2,2'-carbonyl))bis(azanediyl))bis(3,1-phenylene))bis(acetyl))bis(azanediyl))dipentanedioic acid] | 1000 to 20000 | –

— EP3381898A1, “SYMMETRICAL TRIS-ARYL-AMIDE DERIVATIVES AND THEIR USE AS ANTI-HEPARANASE” (priority 2017, dated 2018)
